Reference: ChEMBL document CHEMBL1201862, “PubChem BioAssay data set” (2004)
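All cell lines were grown in 96-well plates and treated with compound for 48 hours. At the GI50, growth is halved.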 Active and inactive are the calls of the source. Cut-off read from the data, not from the text of the source: active = GI50 up to about 1.1 µM and inactive = higher.

Assays:
Experiment in all cases: growth of human tumour cells (NCI), 48 h
T47D = system: T47D
DLD-1 = system: DLD-1
HOP-18 = system: HOP-18
KM-20L2 = system: KM-20L2
LXFL 529 = system: LXFL 529
SNB-78 = system: SNB-78
DMS-114 = system: DMS-114
XF498 = system: XF498

For `Cc1cc(Cc2cc(Cc3cc(C)cc(C(C)(C)C)c3O)c(C)cc2C)c(O)c(C(C)(C)C)c1`, the GI50 (T47D) was 14 µM (inactive).

For `Cn1c(=O)c2nc(CCNC(=O)c3ccccc3)[nH]c2n(C)c1=O`, the GI50 (T47D) was > 100 µM (inactive).

`COC(=O)c1c(-c2cc(OC)c(OC)c(OC)c2)oc2ccccc2c1=O` was tested, and the GI50 (DLD-1) was 52 µM (inactive), the GI50 (HOP-18) was > 100 µM (inactive) and the GI50 (KM-20L2) was > 100 µM (inactive). For the same compound, the GI50 (LXFL 529) was 63.4 µM (inactive) and the GI50 (SNB-78) was > 100 µM (inactive).

For `COc1cc2c(c(OC)c1OC)-c1ccc(SC)c(=O)cc1C(NC=O)CC2` (stereo unspecified), the GI50 (DLD-1) was < 0.01 µM (active), the GI50 (DMS-114) was < 0.01 µM (active) and the GI50 (HOP-18) was > 45.7 µM (inactive). For the same compound, the GI50 (KM-20L2) was < 0.01 µM (active), the GI50 (SNB-78) was < 0.01 µM (active) and the GI50 (T47D) was 54.1 µM (inactive). The GI50 (XF498) was < 0.01 µM (active).

In the case of `CN(C)CCNC(=O)Cc1ccccc1Nc1c(Cl)cccc1Cl`, the GI50 (DLD-1) is reported as 14.2 µM (inactive), the GI50 (DMS-114) is reported as 17.7 µM (inactive) and the GI50 (KM-20L2) is reported as 4.31 µM (inactive). For the same compound, the GI50 (LXFL 529) was 17.7 µM (inactive) and the GI50 (SNB-78) was 17.7 µM (inactive).

With `Cc1cc2nc3n(c2cc1C)C(c1c(F)cccc1F)SC3` (stereo unspecified) the GI50 (T47D) was 57.8 µM (inactive).

With `CC(C)(CO)CNc1nc(N)nc(Cl)c1/C=N/O` the GI50 (T47D) was 4.31 µM (inactive).

In the case of `O=C1/C(=C/c2ccccc2)N=C2Sc3c([nH]cnc3=O)N12`, the GI50 (T47D) is reported as > 100 µM (inactive).

For `Cc1cccc(Nc2nn3c(=O)c4c5c(sc4nc3s2)CCCC5)c1`, the GI50 (T47D) was 9.82 µM (inactive).

With `O=C(CSCC(=O)N/N=C/c1cc(I)cc(I)c1O)N/N=C/c1cc(I)cc(I)c1O` the GI50 (T47D) was 34.3 µM (inactive).

In the case of `CN1C(=O)C(=O)N2c3ccc(Cl)cc3C3(c4ccccc4)N=CC12O3` (stereo unspecified), the GI50 (DLD-1) is reported as 2.83 µM (inactive), the GI50 (DMS-114) is reported as 3.21 µM (inactive) and the GI50 (HOP-18) is reported as 20.4 µM (inactive). For the same compound, the GI50 (KM-20L2) was 8.83 µM (inactive), the GI50 (LXFL 529) was 3 µM (inactive) and the GI50 (SNB-78) was 6.7 µM (inactive). For the same compound, the GI50 (XF498) was 3.13 µM (inactive).

With `Cc1ccc2nc(-c3ccc(N4C(=O)C(Cl)C4c4ccc(Cl)cc4)cc3)sc2c1` (stereo unspecified) the GI50 (T47D) was 27.8 µM (inactive).

With `O=C1SC(c2ccc(Cl)cc2)(c2ccc(Cl)cc2)c2ccccc21` the GI50 (T47D) was 69 µM (inactive).

In the case of `O=C(CN1CCCCC1)Nc1ccc2c(c1)C1Oc3ccccc3CC1CO2` (stereo unspecified), the GI50 (T47D) is reported as 16.4 µM (inactive).

`Cc1ccc(NC(=O)CCC(=O)C(C#N)c2ccc(Cl)cc2)cc1C` (stereo unspecified) was tested, and the GI50 (DLD-1) was > 100 µM (inactive), the GI50 (DMS-114) was > 100 µM (inactive) and the GI50 (HOP-18) was > 100 µM (inactive). For the same compound, the GI50 (KM-20L2) was > 100 µM (inactive), the GI50 (LXFL 529) was > 100 µM (inactive) and the GI50 (SNB-78) was > 100 µM (inactive). The GI50 (XF498) was > 100 µM (inactive).

For `c1ccc(Nc2nnc(CSc3nc(-c4ccccc4)c(-c4ccccc4)[nH]3)s2)cc1`, the GI50 (DLD-1) was 53.8 µM (inactive), the GI50 (DMS-114) was 27.5 µM (inactive) and the GI50 (KM-20L2) was 26.7 µM (inactive). For the same compound, the GI50 (LXFL 529) was 20.1 µM (inactive) and the GI50 (SNB-78) was 30.1 µM (inactive).
